Values quoted from earlier work as cited in patent US20060153907A1, “Liposome formulations of boronic acid compounds” (priority 2004, published 2006).

System: tumor lines
Conditions: NCI in vitro screen

Structure (SMILES): CC(C)C[C@H](NC(=O)[C@H](Cc1ccccc1)NC(=O)c1cnccn1)B(O)O [bortezomib]
- cytotoxicity against a range of tumor lines: showed cytotoxicity
